Target: T1, hHv1 (human voltage-gated proton channel) (Homo sapiens, UniProt Q96D96)
T1 construct: gene HVCN1; no truncation stated
T1 sequence (Q96D96 1-273): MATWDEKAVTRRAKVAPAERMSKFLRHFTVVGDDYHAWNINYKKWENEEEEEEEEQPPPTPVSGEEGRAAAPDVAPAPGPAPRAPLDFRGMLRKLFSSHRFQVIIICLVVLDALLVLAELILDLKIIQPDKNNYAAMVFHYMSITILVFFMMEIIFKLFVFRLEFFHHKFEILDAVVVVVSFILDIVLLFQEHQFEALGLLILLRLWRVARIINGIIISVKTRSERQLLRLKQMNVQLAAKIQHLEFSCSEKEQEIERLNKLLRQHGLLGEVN
Experiment: liposome proton flux assay (ACMA quenching), Hill fit
Assay type: biochemical
Conditions: read-out: half activation concentration (Kd)

- EC50: 7.2 µM
SMILES: CCCCC/C=C\C/C=C\C/C=C\C/C=C\CCCC(=O)O [arachidonic acid]
